Experimental data taken from US20110263693A1, “CELASTROL, GEDUNIN, AND DERIVATIVES THEREOF AS HSP90 INHIBITORS” (DANA-FARBER CANCER INSTITUTE, INC., priority 2006, published 2011).

Legend:
[1] = test system: androgen signaling signature in LNCaP cells; test: GE-HTS androgen signaling signature assay / screen; conditions: for GE-HTS screen # replicates that score as the androgon deprived state (n = 3): KNN / GE-HTS screen # replicates that score as the androgon deprived state (n = 3): Naïve Bayes classifier (P < 0.05) / GE-HTS screen # replicates that score as the androgon deprived state (n = 3): unweighted summed score (P < 0.05) / GE-HTS screen # replicates that score as the androgon deprived state (n = 3): weighted summed score (P < 0.05): LNCaP, 1 nM R1881 plus compound ~20 μM, 24 hr, count of 3 replicates
LNCaP cells = test: Viability screen, luminescent ATP quantitation assay; conditions: 1 nM R1881 plus compound ~20 μM, 3 days
gedunin signature = test: Connectivity Map query with the gedunin signature; format: cell-based, human; design: key to gedunin score (connectivity score): connectivity score, based on Kolmogorov-Smirnov statistic; conditions: enrichment of the gedunin signature (20 μM gedunin at 6 hours, LNCaP) in the compound's Connectivity Map profiles; 6 hr treatment
Method in brief: (§1)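 LNCaP cells received celastrol 1.25 μM or gedunin 20 μM for 6 h. Each signature was scored by Kolmogorov–Smirnov-based connectivity against 453 build01 profiles, mostly 6 h treatments of MCF7 cells.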

celastrol signature = test: Connectivity Map query with the celastrol signature; format: cell-based, human; design: key to celastrol score (connectivity score): connectivity score, based on Kolmogorov-Smirnov statistic; conditions: enrichment of the celastrol signature (1.25 μM celastrol at 6 h, LNCaP) in the compound's Connectivity Map profiles; 6 hr treatment
Method in brief: as §1

[2] = control wells, 1 nM R1881 plus 10 μM casodex, count of n = 336

Molecule | GE-HTS screen # replicates that score as the androgon deprived state (n = 3): KNN [1] | GE-HTS screen # replicates that score as the androgon deprived state (n = 3): Naïve Bayes classifier (P < 0.05) [1] | GE-HTS screen # replicates that score as the androgon deprived state (n = 3): unweighted summed score (P < 0.05) [1] | GE-HTS screen # replicates that score as the androgon deprived state (n = 3): weighted summed score (P < 0.05) [1] | viability screen: viability (% [ATP] normalized to R1881-treated control) (LNCaP cells) | GE-HTS screen # replicates that score as the androgon deprived state: KNN [1, 2] | GE-HTS screen # replicates that score as the androgon deprived state: Naïve Bayes classifier (P < 0.05) [1, 2] | GE-HTS screen # replicates that score as the androgon deprived state: unweighted summed score (P < 0.05) [1, 2] | GE-HTS screen # replicates that score as the androgon deprived state: weighted summed score (P < 0.05) [1, 2] | gedunin score (connectivity score) (gedunin signature) | celastrol score (connectivity score) (celastrol signature)
CC1(C)C(=O)C=C[C@]2(C)[C@H]3CC[C@@]4(C)[C@H](c5ccoc5)OC(=O)[C@H]5O[C@]54[C@]3(C)C=C[C@@H]12 [7-desacetoxy-6,7-dehydrogedunin] | 3 | 3 | 3 | 3 |  |  |  |  |  |  | 
CC(=O)O[C@@H]1CC2C(C)(C)[C@H](O)CC[C@]2(C)C2CC[C@@]3(C)[C@H](c4ccoc4)OC(=O)C4OC43[C@@]21C (stereo partly drawn) [3alpha-hydroxydeoxodihydrogedunin] | 3 | 3 | 3 | 3 |  |  |  |  |  |  | 
CN(C)CCOC(c1ccccc1)c1ccccc1.Cn1c(=O)c2[nH]c(Cl)nc2n(C)c1=O [dimenhydrinate, reference compound] | 3 | 3 | 0 | 0 |  |  |  |  |  |  | 
COC(=O)[C@H](O)[C@H]1C(C)(C)[C@H](OC(C)=O)[C@@H]2CC3=C4CC(=O)O[C@@H](c5ccoc5)[C@]4(C)CC[C@@H]3[C@@]1(C)C2=O [swietenolide-3-acetate] | 2 | 2 | 2 | 2 |  |  |  |  |  |  | 
avermectin B1 [reference compound] | 3 | 2 | 2 | 2 |  |  |  |  |  |  | 
CC(=O)O[C@H]1CC[C@]2(C)[C@H]3C(=O)C=C4[C@@H]5[C@@H](C)[C@H](C)CC[C@]5(C(=O)O)CC[C@@]4(C)[C@]3(C)CC[C@H]2C1(C)C [11-oxoursolic acid acetate] | 3 | 1 | 3 | 2 |  |  |  |  |  |  | 
CC(=O)O[C@H]1CC[C@]2(C)C(C[C@@H](OC(C)=O)[C@]3(C)C4=CC(=O)O[C@H](c5ccoc5)[C@@]4(C)CCC23)C1(C)C (stereo partly drawn) [3-deoxo-3beta-acetoxydeoxydihydrogedunin] | 3 | 3 | 3 | 3 | 51.0% |  |  |  |  |  | 
CCCCCCCCCCCCCCCC[N+](C)(C)C.[Br-] [cetrimonium bromide, reference compound] | 3 | 3 | 0 | 0 | 109.7% |  |  |  |  |  | 
COP(=S)(OC)Oc1ccc([N+](=O)[O-])cc1 [methyl parathione] | 3 | 1 | 3 | 0 |  |  |  |  |  |  | 
CC(=O)[C@H]1CC[C@H]2[C@@H]3CC=C4C[C@@H](O)CC[C@]4(C)[C@H]3CC[C@]12C [pregnenolone, reference compound] | 3 | 2 | 0 | 0 | 91.5% |  |  |  |  |  | 
C[C@@H]1[C@H](O)[C@@H](C)/C=C/C=C/CC/C=C/C=C/C=C/C=C/C(O[C@H]2O[C@H](C)[C@@H](O)[C@H](N)[C@@H]2O)CC2O[C@](O)(CC(O)C(O)CCC(O)CC(O)CC(O)CC(=O)O[C@H]1C)CC(O)C2C(=O)O (stereo partly shown) [nystatin, reference compound] | 2 | 2 | 0 | 0 | 74.5% |  |  |  |  |  | 
CC(=O)O[C@@H]1CC2C(C)(C)CCC[C@]2(C)C2CC[C@]3(C)C(=CC(=O)O[C@H]3c3ccoc3)[C@@]21C (stereo partly shown) [deoxodeoxydihydrogedunin] | 0 | 3 | 2 | 2 |  |  |  |  |  |  | 
methylnortichexanthone | 3 | 2 | 2 | 2 |  |  |  |  |  |  | 
CC(C)(C)c1cc(/C=C(\C#N)C(N)=S)cc(C(C)(C)C)c1O [AG-879, reference compound] | 3 | 2 | 2 | 2 |  |  |  |  |  |  | 
CC1(C)C(=O)CC[C@]2(C)[C@H]3CC[C@]4(C)C(=CC(=O)O[C@H]4c4ccoc4)[C@]3(C)[C@H](O)C[C@@H]12 [dihydro-7-desacetyldeoxygedunin] | 3 | 2 | 2 | 1 |  |  |  |  |  |  | 
CC(O)(CS(=O)(=O)c1ccc(F)cc1)C(=O)Nc1ccc(C#N)c(C(F)(F)F)c1 (stereo not shown) [casodex, bicalutamide, reference compound] |  |  |  |  |  | 283 | 268 | 257 | 261 |  | 
C=C/C(C)=C\CC1C(C)(O)CCC2C(C)(C)CCCC21C (stereo not shown) [abienol] | 2 | 1 | 3 | 3 |  |  |  |  |  |  | 
COc1ccc(C(C)C(=O)c2ccc(O)cc2O)cc1 (stereo not shown) [angolensin] | 3 | 3 | 3 | 3 |  |  |  |  |  |  | 
COC[C@H]1OC(=O)c2coc3c2[C@@]1(C)C1=C(C3=O)[C@@H]2CCC(=O)[C@@]2(C)C[C@H]1OC(C)=O [wortmannin] |  |  |  |  |  |  |  |  |  | 0.126 | −0.324
CSc1ccc(/C=C2/C(C)=C(CC(=O)O)c3cc(F)ccc32)cc1 [sulindac sulfide] |  |  |  |  |  |  |  |  |  | 0 | 0
C[C@@H]1C[C@H]2[C@@H]3CCC4=CC(=O)C=C[C@]4(C)[C@@]3(F)[C@@H](O)C[C@]2(C)[C@@]1(O)C(=O)CO [dexamethasone, reference compound] |  |  |  |  |  |  |  |  |  | 0 | 0
